Key:
Details in all cases: Sprague-Dawley, rat, iv, 1 mg/kg
[1] = in vivo
Description: Clearance in Sprague-Dawley rat at 1 mg/kg, iv

[2] = in vivo; remark: listed apart in the source
Description: Half life in Sprague-Dawley rat at 1 mg/kg, iv

[3] = in vivo; remark: listed apart in the source

clearance [1]: 104 mL/min/kg | half-life [2]: 54 min | Vd [3]: 5.1 L/kg
SMILES: C[C@@H](Nc1cc(-c2c(N)nn3cccnc23)ncn1)c1ccc(F)cc1

Reference: ChEMBL document CHEMBL1156132, “2-Aminopyrazolo[1,5-a]pyrimidines as potent and selective inhibitors of JAK2” (Bioorg Med Chem Lett, 2009)
